{"source": "patent US12527833B2", "about": "“Pharmaceutical composition made from hydrophobic phytochemicals dispersed in sesame oil to enhance bioactivity” (ARJUNA NATURAL PVT. LTD., priority 2017, dated 2026)", "test_system": "Acute Musculoskeletal Pain", "experiment": "Randomized active controlled study of BSC-4 in adult patients with acute musculoskeletal pain (NRS, PRS, PPR, MPR, PGIC)", "format": "in vivo, human", "description": "A Randomized Active Controlled Study to Assess the Efficacy of Sesame Oil Loaded with Boswellia Extract and Curcuminoid Composition (BSC-4) in Adult Patients with Acute Musculoskeletal Pain. Sample size for the study: 88 Subjects were randomized with 1:1 ratio of male and female in each group. Subject selection—Subjects were selected from the screening site who were ready to give a voluntary informed consent and who meets study inclusion criteria. • 1. Adult patient, Male or female between 18-65 years of age. • 2. A score of 5 or above on the Numerical Rating Scale. • 3. Patients having acute musculoskeletal pain which occurred within 24 hours before presentation e.g. headache musculoskeletal injuries, myalgia, neck pain, limb pain, low back pain, joint pain, widespread musculoskeletal pain, painful uncomplicated acute soft tissue injury of the upper or lower extremity, including acute injuries of ligaments, tendons, or muscles (including Grade 1), not requiring admittance to hospital. • 4. Willing to give voluntary informed consent. Visit 1, randomization; subject were provided BSC-4 or Paracetamol as per the pre-documented randomization list accessed only by pharmacist. Patients were entering the NRS, PRS, and PGIC in the diary before and after 2 hour of taking the dose. Follow up calls were made over phone for patents compliance to treatment, diary completion. The follow up on day 3 the patient were reminded to bring the diary for review and bottle for IP accountability at the next visit. Visit 2, Physical examination, vitals, and patient diary were checked. Post dose (2 hours) pain intensity using NRS, pain relief using categorical PRS, and patient's global impression of change (PGIC) were recoded. Visit 3, next visit on 6th day from the visit 1, Patients entered the NRS, PRS, and PGIC in the diary before and after 2 hrs of taking the dose. Follow up calls were made over phone for their compliance to treatment, diary completion. The follow up on day 6 the patient were reminded to bring the diary for review and bottle for IP accountability at the next visit. Physical examination, vitals, and patient diary were checked. Post dose (2 hours) pain intensity using NRS, pain relief using categorical PRS, and patient's global impression of change (PGIC) were recorded. The NRS is an 11-point scales in which 0 represents ‘no pain’ and 10 represents the worst pain possible. The patient were asked to rate their pain intensity as a number from 0 to 10. Alternatively, for better conception it may be explained as below. The NRS were recorded on screening and those patients who have 5 or above score only were enrolled into the study. After the first dose the patient were give the pain intensity rating every 30 minutes up to 6 hours post dose for calculating SPID 6 hrs. The NRS was included in the diary and the patient was required to give the pain intensity every morning before taking the dose and 2 hrs after dose until the end of the study. The average of the recorded data is provided in a graphical form in FIG. 7 (b). The average percentage change of patents when they visited the centre on day 3 and day 7 is provided below. The pain relief scale is a categorical scale having a positive progression from ‘No relief’ to ‘complete relief’. After the first dose the patient rated the pain relief every 30 minutes up to 6 hours for the assessment of Total pain relief 6 hours. The average pain relief score for the 6 hours test was recorded and represented in graphical form in FIG. 8 (a). The pain relief scale was included in the diary and the patient was required to give the pain relief every morning before taking the dose and 2 hours after dose until the end of the study. The average pain relief score for the seven days test was recorded in diary and represented in graphical form in FIG. 8 (b). After dosing the two stop watches were given to the patient. The patient had to stop one of the watches when they felt relief from pain. […]"}
{"smiles": "CC(=O)Nc1ccc(O)cc1", "note": "[Paracetamol]", "values": [{"measurement": "NRS score in six hours", "setting": "FIG. 7(a), 0-10 scale, baseline around 6", "value": 2}, {"measurement": "NRS score by the end of 7th day", "setting": "FIG. 7(b), 0-10 scale, baseline close to 6", "value": "~1"}, {"measurement": "PRS score in six hours", "setting": "FIG. 8(a), scale 1 No Relief to 5 Complete Relief, baseline around 1", "value": 3}, {"measurement": "PRS score by the end of 7th day", "setting": "FIG. 8(b), scale 1-5, baseline close to 1", "value": "~3"}, {"measurement": "Percentage change in pain intensity at 6 hours", "setting": "NRS, 6 hours after first dose", "value": 72.1, "unit": "%"}, {"measurement": "Percentage change in pain intensity in 7 days, day 3", "setting": "NRS, day 3", "value": 24.8, "unit": "%"}, {"measurement": "Percentage change in pain intensity in 7 days, day 7", "setting": "NRS, day 7", "value": 83.62, "unit": "%"}, {"measurement": "Percentage change in pain relief at 6 hours", "setting": "PRS, 6 hours after first dose, threshold reached by the n patients in the same cell", "value": "> 75", "unit": "%"}, {"measurement": "Number of patients (n) with the stated percentage change in pain relief at 6 hours", "setting": "PRS, 6 hours, of n = 44 per group, >75% change", "value": 30}, {"measurement": "Number of patients (n) with the stated percentage change in pain relief, Day 3", "setting": "PRS, Day 3, of n = 44 per group, >50% change", "value": 20}, {"measurement": "Percentage change in pain relief, Day 3", "setting": "PRS, Day 3, threshold reached by the n patients in the same cell", "value": "> 50", "unit": "%"}, {"measurement": "Number of patients (n) with the stated percentage change in pain relief, Day 7", "setting": "PRS, Day 7, of n = 44 per group, >75% change", "value": 37}, {"measurement": "Percentage change in pain relief, Day 7", "setting": "PRS, Day 7, threshold reached by the n patients in the same cell", "value": "> 75", "unit": "%"}, {"measurement": "Meaningful pain relief", "setting": "average time to meaningful pain relief (MPR), censored at 6 hours", "value": 4.51, "unit": "h"}, {"measurement": "Perceptible pain relief", "setting": "average time to perceptible pain relief (PPR), stop watch", "value": 2.62, "unit": "h"}, {"measurement": "PGIC score, Day 2", "setting": "scale 1 Very Much Improved to 7 Very Much Worse, Day 2", "value": 3}, {"measurement": "PGIC score, Day 3", "setting": "scale 1 Very Much Improved to 7 Very Much Worse, Day 3", "value": 3}, {"measurement": "PGIC score, Day 4", "setting": "scale 1 Very Much Improved to 7 Very Much Worse, Day 4", "value": 3}, {"measurement": "PGIC score, Day 5", "setting": "scale 1 Very Much Improved to 7 Very Much Worse, Day 5", "value": 3}, {"measurement": "PGIC score, Day 6", "setting": "scale 1 Very Much Improved to 7 Very Much Worse, Day 6", "value": 3}, {"measurement": "PGIC score, Day 7", "setting": "scale 1 Very Much Improved to 7 Very Much Worse, Day 7", "value": 2}]}
